Broadly, the pIC50 is −log10 of the IC50, conventionally taken in molar units.

The source of these data is US20090291857A1, “METHODS TO IDENTIFY INHIBITORS OF THE UNFOLDED PROTEIN RESPONSE” (THE BOARD OF TRUSTEES OF THE LELAND STANFORD JUNIOR …, priority 2006, published 2009).

pIC50: −log10 of the molar value. Where two headings read alike, the source gives them in different places.

In data set [1] the test system is IRE1α/XBP-1 pathway (XBP1-luciferase reporter). Description: High throughput XBP-luciferase reporter screen, tunicamycin/thapsigargin induced (HTS and IRE IC50). The note with it: Homo sapiens; for inhibition at 20 µM: Conc 20 uM. In kind it is cell-based, human. On the procedure: Specifically, HT1080 fibrosarcoma cells stably transfected with the unspliced XBP-1-luciferase reporter construct (3000/well) were plated onto a solid white 384 well microplate with a multidrop dispenser (40 μL per well). The plates were then placed into an automated incubator. After 24 hours of growth, a mixture of tunicamycin (1 μg/ml) and thapsigargin (100 nM) inducers were added, and candidate compounds were then added to the plates. After 24 hours, luciferase reagent (10 μl) was added to each well and the plates were read in a Molecular Devices Analyst GT (0.2 second read per well).
As described above in Example 2, HT1080 fibrosarcoma cells stably expressing the XBP-luciferase reporter were plated in a 384 well microplate (4000 cells/well). After 24 hours, cells were treated with a mixture of tunicamycin (4 μg/ml) and thapsigargin (0.4 μM), followed by the addition of one compound per well (10 μM). We screened a total of 66,000 diverse molecules obtained from Specs, Chembridge and ChemRX. Twenty-four hours post-induction, BriteGlo luciferase substrate (10 μl) was added to each well and the signal intensity determined in a plate reader (0.2 s read per well). […] We retested 431 compounds from the initial screen, and selected 58 compounds for additional analysis, including calculation of IC50 values and inhibition of a CMV-luciferase reporter.
A. XBP-luciferase reporter construct. Firefly luciferase was inserted downstream of the IRE1α splice site in human XBP-1 to enable the conditional translation of luciferase under ER stress in an IRE1α-dependent manner. B. Selective inhibition of the XBP-luciferase reporter by irestatin 9389. HT1080 human fibrosarcoma cells stably expressing the XBP-luciferase reporter or CMV-luciferase were cultured in the presence of Tm (4 μg/ml) and Tg (0.4 μM) and irestatin 9389 at the indicated concentrations. After 24 hours, luciferase activity was analyzed in an automated plate reader. For each cell line, values are expressed as the percent inhibition of the median for Tm/Tg-treated wells, corrected for background. C. Structure of irestatin 9389. D. XBP-luciferase reporter assay. HT1080 cells stably expressing the XBP-luciferase reporter were exposed to Tm (4 μg/ml) for 24 hours or hypoxia (0.1% oxygen) for 24 or 48 hours, in the presence of DMSO or irestatin 9389 (1 μM) as indicated. Values are expressed as the fold increases over uninduced levels. E. 5X-UPRE reporter assay. HT1080 cells were co-transfected with 5X-UPRE luciferase and SV40-beta-gal reporter plasmids, followed by exposure to Tm or hypoxia as in D. For each condition, luciferase activity is normalized to beta-galactosidase expression levels as an internal control for transfection efficiency. F. Western immunoblot analysis of XBP-1s. HT1080 cells were left untreated (lane 2) or exposed to Tm (4 μg/ml) for 20 hours in the presence of DMSO vehicle (lane 1) or the indicated irestatins (2 μM; lanes 3-6). Cell lysates were resolved by SDS-PAGE and immunoblotting using antisera specific for XBP-1s (top panel) or actin and GAPDH (bottom panel) as loading controls. […] HT1080 cells were treated with DMSO or exposed to irestatin 9389 (2 μM; lane 3) in normoxia (N) or under hypoxia for 24 hours (H 24; lanes 2,3). Cells were harvested, lysed, and analyzed by immunoblotting with antisera specific for HIF-1α (top), XBP-1s (middle) or actin (bottom). H. Northern blot analysis of XBP-1s transcription targets. Cells were exposed to Tm (4 μg/ml) or hypoxia for 24 hours (H 24) in the absence or presence of irestatin 9389 (2 μM). Total RNA was analyzed by Northern blotting using radiolabeled probes specific for P58^IPK or DER-1. Total rRNA is shown as loading control.
As described above, a HT1080 fibrosarcoma cell line stably expressing a fusion of unprocessed XBP-1 inserted upstream of firefly luciferase has been developed to identify small molecule inhibitors of the IRE1α/XBP-1 signaling module. […]

The test system of data set [2] is XBP-1 splicing. Description: Bioluminescence imaging of XBP-1 splicing in HT1080 XBP-1s-luciferase tumors in nude mice. In kind it is in vivo. The note with it: IP, 50 mg/kg. On the procedure: Several nude mice were implanted with HT1080 cells stably expressing a XBP-1s-luciferase construct and XBP-1 activation was examined using bioluminescence imaging. Imaging was performed using the In Vivo Imaging System (IVIS, Xenogen Corporation, Alameda, Calif.) in the Stanford Center for Innovation in In Vivo Imaging (SCI3). This device consists of a cooled CCD camera mounted on a light-tight specimen chamber. In these experiments, two different potential irestatins (3281 & 5500) were injected IP into nude mice implanted with HT1080 stably expressing XBP1s-luciferase (described in FIG. 2A).
As shown in FIGS. 9A-D, XBP-1 splicing activity was undetectable 8 hrs after irestatin 3281 injection and became detectable within 16 hrs later.

[3] abbreviates: 24 h, inhibition of XBP1-luciferase reporter, read-out: Activity Class.
Setting [4] is: HTS, Conc 10 uM, read-out: % Inh.

Turning to `N#Cc1cccc(NC(=O)c2sc3nc4c(c(C(F)(F)F)c3c2N)CCC4)c1` [Compound 8878], the inhibition at 10 µM in data set [1] (setting [3]) was 30 to 75%.
Regarding `COCc1cc(C)nc(SCC(=O)Nc2nc(-c3ccc(Br)cc3)cs2)c1C#N` [Compound 0040], the inhibition at 10 µM in data set [1] (setting [3]) is below 10%; in data set [1] (setting [4]), -4.6%.
With `Cc1cccc(NC(=O)c2sc3nc(C)cc(C(F)(F)F)c3c2N)n1` [Compound 2750], the inhibition at 10 µM was 10 to 30% in data set [1] (setting [3]) and 11.7% in data set [1] (setting [4]).
For `COCc1cc(C)nc(SCC(=O)Nc2nc(-c3ccc(C)cc3)cs2)c1C#N` [Compound 9668], in that order: 10 to 30% and 19%.
For `N#Cc1c(C(F)(F)F)cc(-c2cccs2)nc1SCC(=O)Nc1ccc(C(N)=O)cc1` [Compound 9165], the inhibition at 10 µM was below 10% in data set [1] (setting [3]) and -6.5% in data set [1] (setting [4]).
Take `N#Cc1c(C(F)(F)F)cc(-c2cccs2)nc1SCC(=O)Nc1ccccn1` [Compound 4645]: the inhibition at 10 µM was below 10% in data set [1] (setting [3]) and -8.3% in data set [1] (setting [4]).
`COCc1cc(C)nc(SCC(=O)Nc2nc(-c3ccccc3)c(C)s2)c1C#N` [Compound 9766]: the inhibition at 10 µM is 10 to 30% in data set [1] (setting [3]) and 26.7% in data set [1] (setting [4]).
As to `Cc1cc(C(F)(F)F)c2c(N)c(C(=O)Nc3cccc(C(F)(F)F)c3)sc2n1` [Compound 3290], the inhibition at 10 µM in data set [1] (setting [3]) is below 10%; in data set [1] (setting [4]) it was -30.3%.
For `N#Cc1c(C(F)(F)F)cc(-c2ccncc2)nc1SCC(=O)Nc1nccs1` [Compound 0069], in that order: below 10% and -5.4%.
Take `Nc1c(C(=O)Nc2ccccn2)sc2nc(-c3cccs3)cc(C(F)(F)F)c12` [Compound 1567]: the inhibition at 10 µM in data set [1] (setting [3]) is below 10%; in data set [1] (setting [4]) it was -41.2%.
For `COc1ccc(NC(=O)CSc2nc3c(c(C(F)(F)F)c2C#N)CCC3)c(OC)c1` [Compound 9388], the inhibition at 10 µM in data set [1] (setting [3]) was below 10%; in data set [1] (setting [4]), -40.8%.
On to `COCc1cc(C)nc(SCC(=O)Nc2nc(-c3ccccc3)cs2)c1C#N` [Compound 9787], for which the inhibition at 10 µM in data set [1] (setting [3]) is below 10%; in data set [1] (setting [4]), -122%.
On to `N#Cc1cc2c(nc1SCC(=O)Nc1nccs1)CCC2` [Compound 3371], for which the inhibition at 20 µM in data set [1] (IRE IC50 assay) worked out at 72.6%. Further, the pIC50 in data set [1] (IRE IC50 assay, each value a separate calculation, estimate, not accurate below 10 nM, read-out: IC50) is 4.86.
For the compound `N#Cc1c(C(F)(F)F)cc(-c2ccccc2)nc1SCC(=O)Nc1nccs1` [Compound 6392], the inhibition at 10 µM is below 10% in data set [1] (setting [3]) and 2.7% in data set [1] (setting [4]).
In the case of `Cc1csc(NC(=O)c2sc3nc4c(c(C(F)(F)F)c3c2N)CCCC4)n1` [Compound 4335], the inhibition at 10 µM in data set [1] (setting [3]) was 30 to 75%. Besides, the inhibition at 12 µM in data set [1] (IRE IC50 assay, Conc 12 uM) was 70.4%. In addition, the inhibition at 20 µM in data set [1] (IRE IC50 assay) came to 67.4%.
Consider `COc1ccc(CNC(=O)c2sc3nc4c(c(C(F)(F)F)c3c2N)CCC4)cc1OC` [Compound 2399], for which the inhibition at 10 µM in data set [1] (setting [3]) was 10 to 30%; in data set [1] (setting [4]), 13.3%.
Regarding `COc1ccc(CNC(=O)c2sc3nc4c(c(C(F)(F)F)c3c2N)CCC4)cc1` [Compound 1740], the inhibition at 10 µM in data set [1] (setting [3]) fell in the range of 10 to 30%.
For `CCN(CC)C(=O)CSc1nc2c(c(C(F)(F)F)c1C#N)CCC2` [Compound 8920], the values for the inhibition at 10 µM in data set [1] (setting [3]) and in data set [1] (setting [4]) were 10 to 30% and 25.7%, respectively.
Turning to `N#Cc1sc2nc(-c3cccs3)cc(C(F)(F)F)c2c1N` [Compound 6068], in data set [1] (setting [3]), the inhibition at 10 µM is below 10%. The inhibition at 12.3 µM in data set [1] (HTS, Conc 12.3 uM) was 5.8%.
As to `Cc1cc(C(F)(F)F)c(C#N)c(SCC(=O)Nc2nccs2)n1` [Compound 8233], the inhibition at 10 µM in data set [1] (setting [3]) was below 10%; in data set [1] (setting [4]) it was -59.6%.
On to `N#Cc1cc2c(nc1SCC(=O)Nc1nccs1)CCCCC2` [Compound 3398], for which the inhibition at 10 µM in data set [1] (setting [3]) is below 10%; in data set [1] (setting [4]), -56.2%.
Turning to `COc1ccccc1NC(=O)CSc1nc2c(c(C(F)(F)F)c1C#N)CCC2` [Compound 4950], the results for the inhibition at 10 µM in data set [1] (setting [3]) and in data set [1] (setting [4]) were below 10% and -6.2%, respectively.
With `N#Cc1c(C(F)(F)F)cc(-c2cccs2)nc1SCC(=O)Nc1nccs1` [Compound 6451], the inhibition at 10 µM is below 10% in data set [1] (setting [3]) and -55.6% in data set [1] (setting [4]).
`Cc1csc(NC(=O)c2sc3nc4c(c(C(F)(F)F)c3c2N)CCC4)n1` [Compound 5500]: the inhibition at 10 µM in data set [1] (setting [3]) is 75 to 100%. Further, the inhibition at 20 µM in data set [1] (IRE IC50 assay) came to 100%. In data set [2], the “effect on XBP-1 splicing at the time points assayed” value is reported as “did not have any affect on XBP-1 splicing” and the toxicity result is given as “no apparent toxicity”.
For the compound `CC(=O)N1CCc2nc3sc(C(=O)Nc4cccc(C#N)c4)c(N)c3c(C(F)(F)F)c2C1` [Compound 1491], the inhibition at 10 µM in data set [1] (setting [3]) is 10 to 30%.
Regarding `CC(=O)C1=C(C)NC(SCC(=O)Nc2nc3ccccc3s2)=C(C#N)C1c1cccnc1` (stereo not shown) [Compound 2853], the values for the inhibition at 10 µM in data set [1] (setting [3]) and in data set [1] (setting [4]) were 10 to 30% and 26.5%, respectively.
